Legend:
CRBN/DDB1 = CRBN/DDB1 (Homo sapiens (Human), UniProt Q96SW2); assay: IC50 measurements for binding to CRBN/DDB1 (HTRF); conditions: His tagged CRBN+DDB, Cy5-labeled Thalidomide probe, one hour
Outline: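 Serially diluted compounds compete with a Cy5-labeled thalidomide tracer (60 nM) for His-tagged CRBN-DDB1 (2 nM), detected via anti-6His Tb cryptate (0.4 nM); buffer HEPES pH 7.5 with TCEP, Brij-35, NaCl, BSA. One-hour room-temperature incubation, HTRF signal read, IC50 by four-parameter curve.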

IKZF2 = IKZF2 (Homo sapiens (Human), UniProt Q96SW2+Q9UKS7); assay: In vitro IKZF2 HiBit Assay (HEK293T Flp-in-HiBiT cells); format: cell-based; conditions: HEK293T Flp-in-HiBiT cells, 6 hrs incubation; for DC50: read-out: IKZF2 HiBit DC50; for Dmax: HEK-293T, read-out: IKZF2 HiBit Dmax (%)
Outline: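 Remaining tagged Helios was read as lytic HiBiT/LgBiT luminescence normalized to DMSO, yielding binned DC50 and Dmax values. Treatment ran 6 h, with compounds at 11 three-fold doses diluted from 1 mM and 0.1% final DMSO. The cells were HEK293T Flp-in with CRISPR knock-in of HiBiT at the IKZF2 N-terminus.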

IKZF1 = IKZF1 (Homo sapiens (Human), UniProt Q13422+Q96SW2); assay: In vitro IKZF1 HiBit Assay (HEK293T Flp-in-HiBiT-IKZF1 stable cell line); format: cell-based; conditions: HEK293T Flp-in-HiBiT-IKZF1 stable cell line, 6 hrs incubation; for DC50: read-out: IKZF1 HiBit DC50; for Dmax: HEK-293T, read-out: IKZF1 HiBit Dmax (%)
Outline: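 Degradation was measured as loss of luminescence from the HiBiT-IKZF1 tag after 6 h compound treatment, with 0.1% final DMSO, in stable HEK293T Flp-in cells. Values were normalized to DMSO, giving the 50% degradation concentration and the maximal degradation range.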

IKZF2, sequence (Q9UKS7 whole entry): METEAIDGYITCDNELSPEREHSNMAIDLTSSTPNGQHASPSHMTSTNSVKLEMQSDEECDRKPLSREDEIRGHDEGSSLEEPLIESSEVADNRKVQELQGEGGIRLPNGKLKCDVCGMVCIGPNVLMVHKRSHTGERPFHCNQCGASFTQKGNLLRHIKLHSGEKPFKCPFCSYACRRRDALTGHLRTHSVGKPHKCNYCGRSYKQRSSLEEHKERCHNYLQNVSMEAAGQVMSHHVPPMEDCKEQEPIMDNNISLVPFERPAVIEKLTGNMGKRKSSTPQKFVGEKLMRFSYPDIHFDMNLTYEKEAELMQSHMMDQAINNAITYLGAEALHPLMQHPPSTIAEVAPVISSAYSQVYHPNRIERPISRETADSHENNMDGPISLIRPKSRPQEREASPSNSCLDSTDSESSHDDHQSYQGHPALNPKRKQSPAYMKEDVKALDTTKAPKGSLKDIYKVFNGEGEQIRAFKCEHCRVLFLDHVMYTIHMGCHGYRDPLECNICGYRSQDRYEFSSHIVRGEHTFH
IKZF2, sequence (Q96SW2 whole entry): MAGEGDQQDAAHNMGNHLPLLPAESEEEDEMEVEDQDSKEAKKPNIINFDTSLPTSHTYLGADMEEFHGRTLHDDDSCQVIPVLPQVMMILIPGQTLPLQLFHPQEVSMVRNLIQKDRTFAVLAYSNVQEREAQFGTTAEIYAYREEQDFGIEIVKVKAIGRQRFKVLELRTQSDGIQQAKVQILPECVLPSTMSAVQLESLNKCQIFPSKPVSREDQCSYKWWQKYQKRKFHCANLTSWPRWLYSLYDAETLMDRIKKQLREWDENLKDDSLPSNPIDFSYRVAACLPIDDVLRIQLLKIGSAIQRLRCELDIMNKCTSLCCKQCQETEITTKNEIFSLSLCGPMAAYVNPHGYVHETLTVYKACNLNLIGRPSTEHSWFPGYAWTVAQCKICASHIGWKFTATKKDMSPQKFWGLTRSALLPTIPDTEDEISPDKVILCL
IKZF2, sequence (Q16531 2-1140 partner): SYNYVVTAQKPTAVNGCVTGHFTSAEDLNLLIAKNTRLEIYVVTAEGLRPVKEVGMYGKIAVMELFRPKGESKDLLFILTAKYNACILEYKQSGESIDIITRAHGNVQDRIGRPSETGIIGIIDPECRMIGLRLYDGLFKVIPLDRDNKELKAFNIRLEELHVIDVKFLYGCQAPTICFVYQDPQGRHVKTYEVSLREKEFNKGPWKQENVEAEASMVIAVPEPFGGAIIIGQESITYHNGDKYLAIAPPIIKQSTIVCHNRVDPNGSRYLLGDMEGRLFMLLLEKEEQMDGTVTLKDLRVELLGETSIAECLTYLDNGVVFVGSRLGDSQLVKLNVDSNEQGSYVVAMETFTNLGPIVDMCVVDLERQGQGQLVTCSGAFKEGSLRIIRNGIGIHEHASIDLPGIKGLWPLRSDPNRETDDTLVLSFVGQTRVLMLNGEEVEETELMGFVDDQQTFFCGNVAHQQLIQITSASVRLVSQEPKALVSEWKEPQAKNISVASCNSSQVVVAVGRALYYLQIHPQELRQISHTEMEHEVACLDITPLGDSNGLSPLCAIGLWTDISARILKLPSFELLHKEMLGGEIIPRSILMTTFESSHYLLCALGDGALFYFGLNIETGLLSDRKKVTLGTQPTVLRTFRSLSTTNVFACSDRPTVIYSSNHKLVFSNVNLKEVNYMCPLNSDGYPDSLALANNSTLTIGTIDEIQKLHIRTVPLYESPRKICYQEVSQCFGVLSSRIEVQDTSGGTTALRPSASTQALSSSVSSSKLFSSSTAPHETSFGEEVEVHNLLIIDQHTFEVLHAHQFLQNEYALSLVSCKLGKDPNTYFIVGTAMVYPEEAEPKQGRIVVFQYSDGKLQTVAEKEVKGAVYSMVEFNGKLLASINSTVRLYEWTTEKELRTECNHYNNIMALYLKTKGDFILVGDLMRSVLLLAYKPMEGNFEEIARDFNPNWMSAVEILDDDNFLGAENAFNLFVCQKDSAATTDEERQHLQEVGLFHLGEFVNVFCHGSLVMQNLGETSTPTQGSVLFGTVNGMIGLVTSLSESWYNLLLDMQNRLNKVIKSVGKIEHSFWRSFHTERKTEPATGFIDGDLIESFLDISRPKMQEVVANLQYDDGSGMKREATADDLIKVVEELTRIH
IKZF1, sequence (Q13422 whole entry): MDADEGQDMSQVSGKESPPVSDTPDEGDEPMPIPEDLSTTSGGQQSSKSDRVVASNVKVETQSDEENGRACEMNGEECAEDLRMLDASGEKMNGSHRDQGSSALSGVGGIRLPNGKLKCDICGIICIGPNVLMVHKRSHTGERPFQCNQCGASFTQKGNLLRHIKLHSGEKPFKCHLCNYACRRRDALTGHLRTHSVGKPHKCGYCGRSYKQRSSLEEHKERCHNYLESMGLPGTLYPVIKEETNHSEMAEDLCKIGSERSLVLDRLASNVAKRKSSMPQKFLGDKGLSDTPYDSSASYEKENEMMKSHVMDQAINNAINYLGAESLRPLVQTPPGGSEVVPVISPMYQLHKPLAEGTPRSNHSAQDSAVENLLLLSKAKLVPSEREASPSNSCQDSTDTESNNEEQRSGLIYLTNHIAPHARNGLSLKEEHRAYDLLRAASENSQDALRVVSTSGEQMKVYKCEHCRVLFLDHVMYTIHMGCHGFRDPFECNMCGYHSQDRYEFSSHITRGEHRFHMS
IKZF1, sequence (Q96SW2 whole entry): as the sequence (Q96SW2 whole entry) above
IKZF1, sequence (Q16531 2-1140 partner): as the sequence (Q16531 2-1140 partner) above
CRBN/DDB1, sequence (Q96SW2 whole entry, species assumed): as the sequence (Q96SW2 whole entry) above
CRBN/DDB1, sequence (Q16531 whole entry partner, species assumed): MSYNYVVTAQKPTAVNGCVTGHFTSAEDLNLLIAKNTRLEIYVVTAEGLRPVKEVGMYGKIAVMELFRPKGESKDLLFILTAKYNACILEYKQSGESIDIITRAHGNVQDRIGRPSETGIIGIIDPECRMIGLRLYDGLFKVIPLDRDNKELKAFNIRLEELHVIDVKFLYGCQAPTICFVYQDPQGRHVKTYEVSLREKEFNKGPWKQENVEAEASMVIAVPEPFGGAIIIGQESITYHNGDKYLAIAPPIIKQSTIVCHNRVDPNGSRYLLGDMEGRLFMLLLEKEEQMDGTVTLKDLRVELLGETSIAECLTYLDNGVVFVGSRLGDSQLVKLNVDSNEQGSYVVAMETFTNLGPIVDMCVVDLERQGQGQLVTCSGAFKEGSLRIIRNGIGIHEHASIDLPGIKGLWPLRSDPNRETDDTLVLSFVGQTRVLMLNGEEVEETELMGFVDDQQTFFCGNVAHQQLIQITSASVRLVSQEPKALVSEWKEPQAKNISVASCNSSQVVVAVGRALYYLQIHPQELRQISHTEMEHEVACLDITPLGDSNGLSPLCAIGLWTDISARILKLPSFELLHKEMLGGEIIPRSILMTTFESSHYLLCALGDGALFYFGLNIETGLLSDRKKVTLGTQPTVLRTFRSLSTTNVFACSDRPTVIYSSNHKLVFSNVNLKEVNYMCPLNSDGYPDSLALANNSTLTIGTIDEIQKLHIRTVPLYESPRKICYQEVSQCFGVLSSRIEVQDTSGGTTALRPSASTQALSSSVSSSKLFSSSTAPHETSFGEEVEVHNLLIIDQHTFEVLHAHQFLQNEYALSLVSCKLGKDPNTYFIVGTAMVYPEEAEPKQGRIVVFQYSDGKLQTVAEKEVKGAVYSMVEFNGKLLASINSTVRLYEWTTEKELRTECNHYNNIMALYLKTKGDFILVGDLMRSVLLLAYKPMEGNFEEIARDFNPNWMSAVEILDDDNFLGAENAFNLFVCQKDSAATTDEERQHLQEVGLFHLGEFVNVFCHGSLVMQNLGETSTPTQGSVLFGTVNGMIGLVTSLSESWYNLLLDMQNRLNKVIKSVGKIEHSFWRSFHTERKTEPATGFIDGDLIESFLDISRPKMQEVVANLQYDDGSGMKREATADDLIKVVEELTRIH

SMILES | IC50 (CRBN/DDB1) [nM] | DC50 (IKZF2) [nM] | Dmax (IKZF2) [%] | DC50 (IKZF1) [nM] | Dmax (IKZF1) [%]
O=C1CCC(N2Cc3cc(-c4cc(CN5CCCC5)c5[nH]nc(NC6COC6)c5n4)ccc3C2=O)C(=O)N1 (stereo not shown) [Example 204, 3-(5-(3-(oxetan-3-ylamino)-7-(pyrrolidin-1-ylmethyl)-1H-pyrazolo[4,3-b]pyridin-5-yl)-1-oxoisoindolin-2-yl) piperidine-2,6-dione] | 1000 to 5000 | 1000 to 10000 | < 20 | > 10000 | < 20
O=C1CCC(N2Cc3cc(-c4cc(CN5CCCC5)c5ccn(C6CNC6)c5n4)ccc3C2=O)C(=O)N1 (stereo not shown) [Example 168, 3-(5-(1-(azetidin-3-yl)-4-(pyrrolidin-1-ylmethyl)-1H-pyrrolo[2,3-b]pyridin-6-yl)-1-oxoisoindolin-2-yl) piperidine-2,6-dione] | 500 to 1000 | 100 to 1000 | 60 to 80 | 1000 to 10000 | 20 to 40
Cn1ccc2c(CN3CCC4(CC3)CC4)cc(-c3ccc4c(c3)CN(C3CCC(=O)NC3=O)C4=O)nc21 (stereo not shown) [Example 64, 3-(5-(4-((6-azaspiro[2.5]octan-6-yl)methyl)-1-methyl-1H-pyrrolo[2,3-b]pyridin-6-yl)-1-oxoisoindolin-2-yl) piperidine-2,6-dione] | 100 to 500 | < 1 | > 80 | > 10000 | 20 to 40
O=C1CCC(N2Cc3cc(-c4cc(CN5CCC(O)C5)c5ccn(C6CC6)c5n4)ccc3C2=O)C(=O)N1 (stereo not shown) [Example 142, 3-(5-(1-cyclopropyl-4-((3-hydroxypyrrolidin-1-yl)methyl)-1H-pyrrolo[2,3-b]pyridin-6-yl)-1-oxoisoindolin-2-yl) piperidine-2,6-dione] | 500 to 1000 | 1 to 10 | > 80 | > 10000 | < 20
Cn1ccc2c(CN3CCC(CO)C3)cc(-c3ccc4c(c3)CN(C3CCC(=O)NC3=O)C4=O)nc21 (stereo not shown) [Example 96, 3-(5-(4-((3-(hydroxymethyl)pyrrolidin-1-yl)methyl)-1-methyl-1H-pyrrolo[2,3-b]pyridin-6-yl)-1-oxoisoindolin-2-yl) piperidine-2,6-dione] | 100 to 500 | 1 to 10 | > 80 | 10 to 100 | 20 to 40
O=C1CCC(N2Cc3cc(-c4cc(CN5CCCC5)c5ccn(C6CCCCC6)c5n4)ccc3C2=O)C(=O)N1 (stereo not shown) [Example 166, 3-(5-(1-cyclohexyl-4-(pyrrolidin-1-ylmethyl)-1H-pyrrolo[2,3-b]pyridin-6-yl)-1-oxoisoindolin-2-yl) piperidine-2,6-dione] | 100 to 500 | 1 to 10 | 40 to 60 | > 10000 | < 20
CN(C)CC1CCN(Cc2cc(-c3ccc4c(c3)CN(C3CCC(=O)NC3=O)C4=O)nc3[nH]ccc23)C1 (stereo not shown) [Example 123] | 100 to 500 | 1 to 10 | > 80 | 10 to 100 | 20 to 40
Cn1ncc2c(CN3CCCC3)cc(-c3ccc4c(c3)CN(C3CCC(=O)NC3=O)C4=O)nc21 (stereo not shown) [Example 313, 3-(5-(1-methyl-4-(pyrrolidin-1-ylmethyl)-1H-pyrazolo[3,4-b]pyridin-6-yl)-1-oxoisoindolin-2-yl) piperidine-2,6-dione] | 1000 to 5000 | < 1 | > 80 | 10 to 100 | 20 to 40
O=C1CCC(N2Cc3cc(-c4cc(CN5CC(CO)C5)c5ccn(C6COC6)c5n4)ccc3C2=O)C(=O)N1 (stereo not shown) [Example 165, 3-(5-(4-((3-(hydroxymethyl)azetidin-1-yl)methyl)-1-(oxetan-3-yl)-1H-pyrrolo[2,3-b]pyridin-6-yl)-1-oxoisoindolin-2-yl) piperidine-2,6-dione] | 100 to 500 | 10 to 100 | 60 to 80 | > 10000 | < 20
CC(C)Cn1ccc2c(CN3CCCC3)cc(-c3ccc4c(c3)CN(C3CCC(=O)NC3=O)C4=O)nc21 (stereo not shown) [Example 140, 3-(5-(1-isobutyl-4-(pyrrolidin-1-ylmethyl)-1H-pyrrolo[2,3-b]pyridin-6-yl)-1-oxoisoindolin-2-yl) piperidine-2,6-dione] | 100 to 500 | < 1 | 20 to 40 | > 10000 | < 20
O=C1CCC(N2Cc3cc(-c4cc(CN5CCCC5)c5c(ccn5CCCO)n4)ccc3C2=O)C(=O)N1 (stereo not shown) [Example 173, 3-(5-(1-(3-hydroxypropyl)-7-(pyrrolidin-1-ylmethyl)-1H-pyrrolo[3,2-b]pyridin-5-yl)-1-oxoisoindolin-2-yl) piperidine-2,6-dione] | 1000 to 5000 | 10 to 100 | 60 to 80 | 100 to 1000 | 20 to 40
Cn1ccc2c(CN3CCN4CCCC4C3)cc(-c3ccc4c(c3)CN(C3CCC(=O)NC3=O)C4=O)nc21 (stereo not shown) [Example 95, 3-(5-(4-((hexahydropyrrolo[1,2-a]pyrazin-2 (1H)-yl)methyl)-1-methyl-1H-pyrrolo[2,3-b]pyridin-6-yl)-1-oxoisoindolin-2-yl) piperidine-2,6-dione] | 100 to 500 | 1 to 10 | 60 to 80 | > 10000 | < 20
O=C1CCC(N2Cc3c(ccc(-c4cc(CN5CCCC5)c5cc[nH]c5n4)c3F)C2=O)C(=O)N1 (stereo not shown) [Example 126, 3-(4-fluoro-1-oxo-5-(4-(pyrrolidin-1-ylmethyl)-1H-pyrrolo[2,3-b]pyridin-6-yl)isoindolin-2-yl) piperidine-2,6-dione] | 100 to 500 | < 1 | > 80 | 1 to 10 | 40 to 60
Nc1n[nH]c2c(CN3CCC(O)C3)cc(-c3ccc4c(c3)CN(C3CCC(=O)NC3=O)C4=O)nc12 (stereo not shown) [Example 196, 3-(5-(3-amino-7-((3-hydroxypyrrolidin-1-yl)methyl)-1H-pyrazolo[4,3-b]pyridin-5-yl)-1-oxoisoindolin-2-yl) piperidine-2,6-dione] | 1000 to 5000 | 100 to 1000 | 40 to 60 | > 10000 | < 20
CC(C)n1nc(N)c2nc(-c3ccc4c(c3)CN(C3CCC(=O)NC3=O)C4=O)cc(CN3CCCC3)c21 (stereo not shown) [Example 177, 3-(5-(3-amino-1-isopropyl-7-(pyrrolidin-1-ylmethyl)-1H-pyrazolo[4,3-b]pyridin-5-yl)-1-oxoisoindolin-2-yl) piperidine-2,6-dione] | 500 to 1000 | 1 to 10 | 60 to 80 | 10 to 100 | 20 to 40
Nc1n[nH]c2c(CN3CC(F)C3)cc(-c3ccc4c(c3)CN(C3CCC(=O)NC3=O)C4=O)nc12 (stereo not shown) [Example 207, 3-(5-(3-amino-7-((3-fluoroazetidin-1-yl)methyl)-1H-pyrazolo[4,3-b]pyridin-5-yl)-1-oxoisoindolin-2-yl) piperidine-2,6-dione] | 100 to 500 | 10 to 100 | 60 to 80 | > 10000 | < 20
Cn1ncc2nc(-c3ccc4c(c3)CN(C3CCC(=O)NC3=O)C4=O)cc(CN3CCCC3)c21 (stereo not shown) [Example 310, 3-(5-(1-methyl-7-(pyrrolidin-1-ylmethyl)-1H-pyrazolo[4,3-b]pyridin-5-yl)-1-oxoisoindolin-2-yl) piperidine-2,6-dione] | 500 to 1000 | < 1 | > 80 | > 10000 | < 20

From patent publication US20250214991A1 (Oncopia Therapeutics, Inc. d/b/a/ SK Life Science Labs, priority 2022, published 2025)
